# What was measured:
# [1] = Aqueous solubility (slurry in pH 7 buffer, UPLC); type: physicochemical; settings: aqueous buffer, thermodynamic from solid; pH 7.4 in PBS buffer solution; read-out: Solubility
# Experimental: Aqueous solubility of the compounds was measured by suspending, sonicating (30 minutes), and slurrying (2 hours, 1000 rpm) excess solid (typically 5-10 mg) in phosphate buffered saline at pH 7, or equivalent pH 7 buffer. The suspension was then sonicated again for 30 minutes and stirred again at 1000 rpm for at least 6-24 hours. Approximately 400 μL of sample was removed and placed into spin filters. Each sample was spun at 14K rpm for 10 minutes using a 0.45 μm PVDF spin filter. A portion of the filtrate was removed and diluted with 1:1 ACN:H2O. The resultant samples were analyzed using UPLC analysis. Retains of the solids were checked by XRPD to determine if the material was crystalline or amorphous. Solubility of Compound A was measured at 140 μg/mL at pH 7.4 in PBS buffer solution.
# [2] = target: T1, human PDE10 enzyme (Homo sapiens, UniProt Q9Y233); experiment: PDE10 fluorescence polarization (IMAP FP) inhibition assay; type: biochemical; settings: 'generally less than about'
# T1 construct: made in house; host or cells: AD293 cells, transiently transfected; the supernatant (cytoplasmic fraction) of the sonicated lysate served as enzyme
# Experimental: The activity of the compounds in accordance with the present invention as PDE10 inhibitors may be readily determined without undue experimentation using a fluorescence polarization (FP) methodology that is well known in the art (Huang, W., et al., J. Biomol Screen, 2002, 7: 215).
# In a typical experiment the PDE10 inhibitory activity of compounds such as Compound A was determined in accordance with the following experimental method. PDE10A2 was amplified from human fetal brain cDNA (Clontech, Mountain View, CA) using a forward primer corresponding to nucleotides 56-77 of human PDE10A2 (Accession No. AF127480, Genbank Identifier 4894716), containing a Kozak consensus sequence, and a reverse primer corresponding to nucleotides 2406-2413 of human PDE10A2 (Accession No. AF127480, Genbank Identifier 4894716). Amplification with Easy-A polymerase (Stratagene, La Jolla, CA) was 95° C. for 2 minutes followed by thirty three cycles of 95° C. for 40 seconds, 55° C. for 30 seconds, and 72° C. for 2 minutes 48 seconds. Final extension was 72° C. for 7 minutes. […] The fluorescence polarization assay for cyclic nucleotide phosphodiesterases was performed using an IMAP® FP kit supplied by Molecular Devices, Sunnyvale, CA (product #R8139). […] 0% of inhibition is determined by using DMSO (1% final concentrations). […]
# T1 sequence (Q9Y233 267-1055): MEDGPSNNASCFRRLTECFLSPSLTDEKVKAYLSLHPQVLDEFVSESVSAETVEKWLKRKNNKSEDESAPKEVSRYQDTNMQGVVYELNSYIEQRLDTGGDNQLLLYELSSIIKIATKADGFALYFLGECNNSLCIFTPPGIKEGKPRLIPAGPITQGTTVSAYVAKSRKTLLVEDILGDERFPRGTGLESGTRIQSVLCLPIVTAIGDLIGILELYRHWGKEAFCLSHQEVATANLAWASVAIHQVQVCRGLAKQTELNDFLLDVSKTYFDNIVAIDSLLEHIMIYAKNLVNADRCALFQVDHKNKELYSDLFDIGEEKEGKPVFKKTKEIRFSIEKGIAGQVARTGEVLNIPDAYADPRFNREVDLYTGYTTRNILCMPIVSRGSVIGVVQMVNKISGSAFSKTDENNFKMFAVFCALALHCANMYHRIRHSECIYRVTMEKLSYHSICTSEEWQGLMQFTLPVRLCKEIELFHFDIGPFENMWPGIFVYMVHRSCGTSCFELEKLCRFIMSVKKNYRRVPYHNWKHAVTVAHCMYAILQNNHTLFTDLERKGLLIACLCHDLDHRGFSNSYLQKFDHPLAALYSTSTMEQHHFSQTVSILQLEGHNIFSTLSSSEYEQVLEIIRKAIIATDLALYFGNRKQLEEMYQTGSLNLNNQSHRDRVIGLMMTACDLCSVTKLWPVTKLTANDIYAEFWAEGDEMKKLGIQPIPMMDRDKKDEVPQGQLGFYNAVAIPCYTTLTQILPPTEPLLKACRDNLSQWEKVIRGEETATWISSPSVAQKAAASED
smiles,measurement,setting,value
"Cc1ccc([C@H]2C[C@@H]2COc2cc(NCc3nnc(C)s3)nc(C)n2)nc1 [Compound A, 2-methyl-N-((5-methyl-1,3,4-thiadiazol-2-yl)methyl)-6-(((1S,2S)-2-(5-methylpyridin-2-yl)cyclopropyl)methoxy)pyrimidin-4-amine, reference compound]",solubility,[1],140 µg/mL
same,Ki,[2],< 1000 nM

# Reference: US12215101B2, “Pro drugs of PDE10 compounds” (Merck Sharp & Dohme LLC, priority 2021, dated 2025)
